Here are results for 31 compounds from patent US20060116390A1, “Hepatitis c virus inhibitors” (priority 2003, published 2006).

Where two headings read alike, the source gives them in different places.

For the experiment, the system named is HCV proteins in Rep5.1 cells (replicon cell line). Kind of experiment: Inhibitory activity of HCV: cell-based ELISA in replicon cell line Rep5.1 (decrease of HCV proteins). As to conditions: Rep5.1 cells, 72 hours with drug. Set-up: species or system hepatitis C virus. Summed up: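 Rep5.1 replicon cells (5000/well, DMEM-10 with 500 μg/ml G418) were given serially diluted drug 4 h after seeding. After 72 h, cells were fixed in methanol/acetone and HCV proteins detected by cell-based ELISA using replicon-specific patient plasma antibodies. IC50 is the concentration giving 50% protein decrease versus the no-drug control.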
(ELISA stands for enzyme-linked immunosorbent assay.)

The mark [1] stands for this setting: Hepatitis C virus, 72 h, concentration at which 50% of HCV proteins was decreased, Table 2, read-out: IC50.
The mark [2] stands for this setting: Hepatitis C virus, 72 h, decrease of HCV proteins measured by HCV antibody, Table 1, read-out: Level (IC50 values classified).
Where [3] appears, read: concentration at which 50% of HCV proteins was decreased, Table 2, read-out: IC50.

Consider `CC1=C(C(=O)OCCc2cc(C)cc(C)c2)C(CO)NC(=S)N1` (stereo not drawn) [37″, 4-hydroxymethyl-6-methyl-2-thioxo-1,2,3,4-tetrahydro-pyrimidine-5-carboxylic acid 2-(3,5-dimethyl-phenyl)-ethyl ester], for which the IC50 is, setting by setting: under setting [1], 800 nM; under setting [2], less than 1000 nM.

On to `CC1=C(C(=O)OCc2cccc(C(F)(F)F)c2)CNC(=S)N1` [Compound 101, 6-methyl-2-thioxo-1,2,3,4-tetrahydro-pyrimidine-5-carboxylic acid 3-trifluoromethyl-benzyl ester], for which the IC50 is less than 400 nM under setting [1] and less than 1000 nM under setting [2].

`CC1=C(C(=O)OC(C)CCc2ccccc2)CNC(=S)N1` (stereo not drawn) [Compound 42, 6-methyl-2-thioxo-1,2,3,4-tetrahydro-pyrimidine-5-carboxylic acid 1-methyl-3-phenyl-propyl ester]: the IC50 was 500 nM under setting [1] and less than 1000 nM under setting [2].

In the case of `CC1=C(C(=O)OCc2cccc(Oc3ccccc3)c2)C(CO)NC(=S)N1` (stereo not drawn) [46″, 4-hydroxymethyl-6-methyl-2-thioxo-1,2,3,4-tetrahydro-pyrimidine-5-carboxylic acid 3-phenoxy-benzyl ester], the IC50 is, setting by setting: under setting [1], less than 400 nM; under setting [2], less than 1000 nM.

On to `CC1=C(C(=O)OCc2cc(Cl)cc(Cl)c2)C(CO)NC(=S)N1` (stereo not drawn) [34″, 4-hydroxymethyl-6-methyl-2-thioxo-1,2,3,4-tetrahydro-pyrimidine-5-carboxylic acid 3,5-dichloro-benzyl ester], for which the IC50 reads like this: under setting [1], 2600 nM; under setting [2], 1000 to 10000 nM.

With `CC1=C(C(=O)OCCCn2c(=O)sc3ccccc32)C(CF)NC(=S)N1` (stereo not drawn) [48′, 4-fluoromethyl-6-methyl-2-thioxo-1,2,3,4-tetrahydro-pyrimidine-5-carboxylic acid 3-(2-oxo-benzothiazol-3-yl)-propyl ester], the IC50 is 21000 nM under setting [1] and greater than 20000 nM under setting [2].

Turning to `CC1=C(C(=O)OCc2sccc2C)CNC(=S)N1` [Compound 202, 6-methyl-2-thioxo-1,2,3,4-tetrahydro-pyrimidine-5-carboxylic acid 3-methyl-thiophen-2-ylmethyl ester], the IC50 was 9000 nM under setting [1] and 1000 to 10000 nM under setting [2].

With `CC1=C(C(=O)OCc2ccc(Cl)s2)CNC(=S)N1` [Compound 233, 6-methyl-2-thioxo-1,2,3,4-tetrahydro-pyrimidine-5-carboxylic acid 5-chloro-thiophen-2-ylmethyl ester], the IC50 is 200 nM under setting [1] and less than 1000 nM under setting [2].

Consider `CC1=C(C(=O)OCCc2ccsc2)C2(CC2)NC(=S)N1` [13′, 7-methyl-5-thioxo-4,6-diaza-spiro[2.5]oct-7-ene-8-airboxylic acid 2-thiophen-3-yl-ethyl ester], for which the IC50 under setting [3] amounted to 79000 nM.

Consider `CC1=C(C(=O)OCc2ccn(S(=O)(=O)c3ccc(C)cc3)c2)CNC(=S)N1` [Compound 230, 6-methyl-2-thioxo-1,2,3,4-tetrahydro-pyrimidine-5-carboxylic acid 1-(toluene-4-sulfonyl)-1H-pyrrol-3-ylmethyl ester], for which the IC50 runs as follows: under setting [1], less than 400 nM; under setting [2], less than 1000 nM.

Regarding `CC1=C(C(=O)OCC2CCOC2)CNC(=S)N1` (stereo not drawn) [Compound 162, 6-methyl-2-thioxo-1,2,3,4-tetrahydro-pyrimidine-5-carboxylic acid tetrahydrofuran-3-ylmethyl ester], the IC50 was greater than 100000 nM under setting [1] and greater than 20000 nM under setting [2].

With `CC1=C(C(=O)OCCc2cccc([N+](=O)[O-])c2)CNC(=S)N1` [14′, 6-methyl-2-thioxo-1,2,3,4-tetrahydro-pyrimidine-5-carboxylic acid 2-(3-nitro-phenyl)-ethyl ester], the IC50 is 700 nM under setting [1] and less than 1000 nM under setting [2].

On to `CC1=C(C(=O)OCc2ccccc2S(C)(=O)=O)CNC(=S)N1` [Compound 112, 6-methyl-2-thioxo-1,2,3,4-tetrahydro-pyrimidine-5-carboxylic acid 2-methanesulfonyl-benzyl ester], for which the IC50 is greater than 100000 nM under setting [1] and greater than 20000 nM under setting [2].

As to `CC1=C(C(=O)OCc2cccc(Cl)c2)CNC(=S)N1` [Compound 91, 6-methyl-2-thioxo-1,2,3,4-tetrahydro-pyrimidine-5-carboxylic acid 3-chloro-benzyl ester], the IC50 under setting [1] was less than 400 nM and the IC50 under setting [2] is less than 1000 nM.

Turning to `CCCOCC#CCOC(=O)C1=C(C)NC(=S)NC1` [Compound 237, 6-methyl-2-thioxo-1,2,3,4-tetrahydro-pyrimidine-5-carboxylic acid 4-propoxy-but-2-inyl ester], the IC50 under setting [3] was found to be 1700 nM.

Turning to `O=C(OCc1ccccc1)C1=CNC(=S)NC1` [Compound 44, 2-thioxo-1,2,3,4-tetrahydro-pyrimidine-5-carboxylic acid benzyl ester], the IC50 under setting [1] was 3000 nM and the IC50 under setting [2] lay in the range of 1000 to 10000 nM.

`CC1=C(C(=O)OCCc2cccc(Cl)c2)C(COC(=O)OCc2oc(=O)oc2C)NC(=S)N1` (stereo not drawn) [78″, 6-methyl-4-(5-methyl-2-oxo-[1,3]dioxol-4-ylmethoxycarbonyloxymethyl)-2-thioxo-1,2,3,4-tetrahydro-pyrimidine-5-carboxylic acid 2-(3-chloro-phenyl)-ethyl ester]: the IC50 reads like this: under setting [1], 800 nM; under setting [2], less than 1000 nM.

Regarding `COc1ccccc1CCCOC(=O)C1=C(C)NC(=S)NC1` [Compound 104, 6-methyl-2-thioxo-1,2,3,4-tetrahydro-pyrimidine-5-carboxylic acid 3-(2-methoxy-phenyl)-propyl ester], the IC50 was less than 400 nM under setting [1] and less than 1000 nM under setting [2].

With `CC1=C(C(=O)SCc2ccccc2)CNC(=S)N1` [Compound 85, 6-methyl-2-thioxo-1,2,3,4-tetrahydro-pyrimidine-5-carbothioic acid S-benzyl ester], the IC50 was 100 nM under setting [1] and less than 1000 nM under setting [2].

With `CC1=C(C(=O)OCCc2ccc([N+](=O)[O-])cc2)CNC(=S)N1` [Compound 119, 6-methyl-2-thioxo-1,2,3,4-tetrahydro-pyrimidine-5-carboxylic acid 2-(4-nitro-phenyl)-ethyl ester], the IC50 runs as follows: under setting [1], 1300 nM; under setting [2], 1000 to 10000 nM.

As to `CC1=C(C(=O)OCc2cc3c(C)snc3s2)CNC(=S)N1` [Compound 213, 6-methyl-2-thioxo-1,2,3,4-tetrahydro-pyrimidine-5-carboxylic acid 3-methyl-thieno[2,3-c]isothiazol-5-ylmethyl ester], the IC50 under setting [1] turned out to be 4000 nM and the IC50 under setting [2] was 1000 to 10000 nM.

On to `CC1=C(C(=O)OCCCc2ccsc2)C(CS(=O)(=O)C(C)(C)C)NC(=S)N1` (stereo not drawn) [68′, 6-methyl-4-(2-methyl-propane-2-sulfonylmethyl)-2-thioxo-1,2,3,4-tetrahydro-pyrimidine-5-carboxylic acid 3-thiophen-3-yl-propyl ester], for which the IC50 is, setting by setting: under setting [1], greater than 100000 nM; under setting [2], greater than 20000 nM.

`C=C(C)[C@@H]1CC=C(COC(=O)C2=C(C)NC(=S)NC2)CC1` [Compound 96, 6-methyl-2-thioxo-1,2,3,4-tetrahydro-pyrimidine-5-carboxylic acid (s)-(−)-4-isopropenyl-cyclohex-1-enylmethyl ester]: the IC50 was less than 400 nM under setting [1] and less than 1000 nM under setting [2].

Regarding `CC1=C(C(=O)OCc2ccccc2S(=O)(=O)CC(C)C)CNC(=S)N1` [Compound 113, 6-methyl-2-thioxo-1,2,3,4-tetrahydro-pyrimidine-5-carboxylic acid 2-(2-methyl-propane-1-sulfonyl)-benzyl ester], the IC50 was greater than 100000 nM under setting [1] and greater than 20000 nM under setting [2].

On to `CC1=C(C(=O)OCc2cc(Cl)ccc2[N+](=O)[O-])C(CF)NC(=S)N1` (stereo not drawn) [78′, 4-fluoromethyl-6-methyl-2-thioxo-1,2,3,4-tetrahydro-pyrimidine-5-carboxylic acid 5-chloro-2-nitro-benzyl ester], for which the IC50 is 11000 nM under setting [1] and 10000 to 20000 nM under setting [2].

For the compound `CC1=C(C(=O)OCC2CCCO2)CNC(=S)N1` (stereo not drawn) [Compound 161, 6-methyl-2-thioxo-1,2,3,4-tetrahydro-pyrimidine-5-carboxylic acid tetrahydrofuran-2-ylmethyl ester], the IC50 runs as follows: under setting [1], greater than 100000 nM; under setting [2], greater than 20000 nM.

In the case of `CC1=C(C(=O)OCc2cccc3ccccc23)CNC(=S)N1` [Compound 10, 6-methyl-2-thioxo-1,2,3,4-tetrahydro-pyrimidine-5-carboxylic acid naphthalen-1-ylmethyl ester], the IC50 by setting is: under setting [1], 1000 nM; under setting [2], less than 1000 nM.

`CCOC(=O)C1NC(=S)NC(C)=C1C(=O)OCCc1ccsc1` (stereo not drawn) [6′, 6-methyl-2-thioxo-1,2,3,4-tetrahydro-pyrimidine-4,5-dicarboxylic acid 4-ethyl ester 5-(2-thiophen-3-yl-ethyl) ester]: the IC50 runs as follows: under setting [1], greater than 100000 nM; under setting [2], greater than 20000 nM.

Take `CSCCCOC(=O)C1=C(C)NC(=S)NC1CF` (stereo not drawn) [63′, 4-fluoromethyl-6-methyl-2-thioxo-1,2,3,4-tetrahydro-pyrimidine-5-carboxylic acid 3-methylsulfanyl-propyl ester]: the IC50 was greater than 100000 nM under setting [1] and greater than 20000 nM under setting [2].

As for `CC1=C(C(=O)OCc2cc(C)cc(C)c2)C(CF)NC(=S)N1` (stereo not drawn) [35′, 4-fluoromethyl-6-methyl-2-thioxo-1,2,3,4-tetrahydro-pyrimidine-5-carboxylic acid 3,5-dimethyl-benzyl ester], the IC50 under setting [1] turned out to be 800 nM and the IC50 under setting [2] is less than 1000 nM.

Take `CCN(CCOC(=O)C1=C(C)NC(=S)NC1)c1cccc(C)c1` [Compound 59, 6-methyl-2-thioxo-1,2,3,4-tetrahydro-pyrimidine-5-carboxylic acid 2-(ethyl-m-tolyl-amino)-ethyl ester]: the IC50 is, setting by setting: under setting [1], 3000 nM; under setting [2], 1000 to 10000 nM.

One may read the IC50 as the midpoint of a concentration-inhibition curve.
